Values after ≈ are worked out from the molar mass of the structure shown. A value given as a limit tells only on which side of the number the result lay.

Experimental findings from ChEMBL document CHEMBL1152704, “Synthesis and structure-function analysis of Fe(II)-form-selective antibacterial inhibitors of Escherichia coli methionine aminopeptidase” (Bioorg Med Chem Lett, 2009) are described below.

Assay [1] in a line: Inhibition of mangnese-activated Escherichia coli MetAP.
The nature of assay [2]: Inhibition of cobalt-activated Escherichia coli MetAP.
Assay [3] in a line: Inhibition of ferrous-activated Escherichia coli MetAP.
A further assay has as its system Escherichia coli. Briefly: Antibacterial activity against Escherichia coli AS19. The class given is functional, organism-based.

One may read the IC50 as the midpoint of a concentration-inhibition curve. High values mean lower potency, low ones higher potency. As a reminder, the MIC is the lowest concentration found to suppress growth. The low end stands for a more susceptible organism, the high end for a less susceptible organism. Regarding `Oc1ccc(-c2ncc(F)cn2)cc1O`, the IC50 in assay [1] was over 100 µM; in assay [2] it was 52.6 µM; in assay [3], 10.6 µM; in the assay on Escherichia coli it was 206 µM. This compound also yielded a minimal inhibitory concentration (MIC) against Escherichia coli of 80 µg/mL (≈ 388 µM).
For `Oc1ccc(-c2ccccn2)cc1O` the same measures were over 100 µM, over 100 µM, 19.3 µM, 211 µM and 106 µg/mL (≈ 566 µM).
In the case of `Cn1ccnc1-c1ccc(O)c(O)c1`, the IC50 in assay [1] is over 100 µM; in assay [2], over 100 µM; in assay [3], over 100 µM; in the assay on Escherichia coli it was over 250 µM.
In the case of `O=C(NC1CC1)c1ccc(-c2ccc(O)c(O)c2)o1`, the half-inhibitory concentration (IC50) in assay [1] was over 100 µM; in assay [2], over 100 µM; in assay [3] it was 14.8 µM; in the assay on Escherichia coli it was 55 µM. Moreover, the MIC with Escherichia coli turned out to be 26 µg/mL (≈ 100 µM).
Turning to `O=C(NC1CCCC1)c1ccc(-c2ccc(O)c(O)c2)o1`, the IC50 in assay [1] is 11.8 µM; in assay [2], 30.1 µM; in assay [3] it was 0.9 µM; in the assay with Escherichia coli, 23.4 µM. This compound also registered an MIC against Escherichia coli of 19 µg/mL (≈ 66.1 µM).
On to `C=CCCNC(=O)c1ncoc1-c1cccc(O)c1O`, for which the IC50 in assay [1] is over 100 µM; in assay [2], over 100 µM; in assay [3], 13.4 µM; in the assay on Escherichia coli it was 97.2 µM. The MIC with Escherichia coli is 99 µg/mL (≈ 361 µM).
Consider `Oc1ccc(-c2cn(Cc3ccccc3)nn2)cc1O`, for which the concentration for half-maximal inhibition (IC50) in assay [1] came to 19.5 µM; in assay [2], 24.6 µM; in assay [3], 16.1 µM; with Escherichia coli it was 97.7 µM. The minimum inhibitory concentration (MIC) against Escherichia coli is 79 µg/mL (≈ 296 µM).
With `O=C(NC1CCCC1)c1ncoc1-c1cccc(O)c1O`, the concentration for half-maximal inhibition (IC50) was over 100 µM in assay [1], over 100 µM in assay [2], 11 µM in assay [3] and 165 µM with Escherichia coli. The same compound registered a minimum inhibitory concentration (MIC) with Escherichia coli of 199 µg/mL (≈ 690 µM).
Take `COc1cnc(-c2cccc(O)c2O)o1`: the IC50 is over 100 µM in assay [1], over 100 µM in assay [2], 11.2 µM in assay [3] and 228 µM in the assay on Escherichia coli. This compound also returned a minimal inhibitory concentration (MIC) with Escherichia coli of 164 µg/mL (≈ 792 µM).
On to `Oc1ccc(-c2ncccn2)cc1O`, for which the IC50 was over 100 µM in assay [1], over 100 µM in assay [2], 25.5 µM in assay [3] and over 250 µM in the assay with Escherichia coli.
For `COC(=O)c1ncoc1-c1cccc(O)c1O`, the IC50 in assay [1] was over 100 µM; in assay [2], over 100 µM; in assay [3] it was 14 µM; with Escherichia coli it was 120 µM. In addition, in the assay with Escherichia coli, it took 99 µg/mL (≈ 421 µM) to inhibit growth (MIC).
Consider `O=C(NC1CCC1)c1ccc(-c2ccc(O)c(O)c2)o1`, for which the half-maximal inhibitory concentration (IC50) in assay [1] was 7.9 µM; in assay [2], 22.5 µM; in assay [3] it was 1.2 µM; with Escherichia coli it was 43.9 µM. In the assay on Escherichia coli, this compound showed a minimum inhibitory concentration (MIC) of 29 µg/mL (≈ 106 µM).
Regarding `C=CCCNC(=O)c1ccc(-c2ccc(O)c(O)c2)o1`, the IC50 in assay [1] is 6.7 µM; in assay [2], 21.2 µM; in assay [3], 1 µM; with Escherichia coli, 50.8 µM. In addition, the MIC against Escherichia coli turned out to be 39 µg/mL (≈ 143 µM).
